The results in this text go back to patent US10940139B2, “Compounds that interact with the Ras superfamily for the treatment of cancers, inflammatory diseases, rasopathies, and fibrotic disease” (Shy Therapeutics LLC, priority 2017, dated 2021).

Test [1] relates to IL6 production in RAW 264.7 macrophage cell line. Kind of test: Mouse IL6 quantification assay (LPS-stimulated macrophages, ELISA). As to conditions: RAW264.7, RAW 264.7 murine leukemia virus transformed macrophage cell lines, LPS stimulation, read-out: IL-6 % Inhibition at 30 μM. It is filed as cell-based.
The test system of test [2] is TNFα production in RAW 264.7 macrophage cell line. The experiment in a line: Mouse TNF alpha quantification assay (LPS-stimulated macrophages, ELISA). It is filed as cell-based. The settings on record: RAW264.7, RAW 264.7 murine leukemia virus transformed macrophage cell lines, LPS stimulation, read-out: TNF-α % Inhibition at 30 μM.

As for `O=C(c1csc2c(O)nc(-c3ccccn3)nc12)N1CCN(c2ccc(F)cc2)CC1` [drawing 2180], the inhibition at 30 µM in test [1] is 26 to 50%; in test [2], 0%.

`Cc1ccc(-c2csc3c(O)nc(-c4ccccn4)nc23)cc1` [drawing 2387]: the inhibition at 30 µM is 0% in test [1] and 1 to 25% in test [2].

For the compound `O=C(Nc1nnc(-c2ccccn2)[nH]1)c1ccc(Oc2ccccc2)nc1` [drawing 1956], the figures for the inhibition at 30 µM in test [1] and in test [2] were 26 to 50% and 1 to 25%, respectively.

Turning to `Cc1ccc(CN(Cc2ccco2)C(=O)c2oc3ccccc3c2C)cc1` [drawing 2049], the results for the inhibition at 30 µM in test [1] and in test [2] were 1 to 25% and 0%, respectively.

For the compound `O=C(CCn1ccnc1)Nc1nc(-c2ccccn2)nc2sccc12` [drawing 2281], the inhibition at 30 µM in test [1] is 51 to 75%; in test [2] it was 0%.

Take `Cn1nnc2ccc(-c3csc4c(O)nc(-c5ccccn5)nc34)cc21` [drawing 2253]: the inhibition at 30 µM in test [1] lay within 76 to 100%; in test [2], 1 to 25%.

With `NC(=O)C1CCN(c2nc(-c3ccccn3)nc3scc(-c4ccccc4)c23)CC1` [drawing 2164], the inhibition at 30 µM in test [1] and in test [2] was 1 to 25% in each case.

`CN(C)Cc1ccc(F)c(-c2csc3c(O)nc(-c4ccccn4)nc23)c1` [drawing 2293]: the inhibition at 30 µM in test [1] was 76 to 100%; in test [2], 51 to 75%.

For `Cn1ccnc1-c1nc(NCCCO)c2c(-c3ccccc3)c(-c3ccccc3)sc2n1` [drawing 2406], the inhibition at 30 µM in test [1] was in the range of 51 to 75%; in test [2] it was 26 to 50%.

For the compound `c1ccc(-c2csc3nc(-c4ccccn4)nc(NN4CCOCC4)c23)cc1` [drawing 2159], the inhibition at 30 µM in test [1] fell in the range of 51 to 75%; in test [2], 26 to 50%.

In the case of `COc1ccc(CN(CC[S+]([O-])c2cc(Cl)ccc2Cl)C2CC2)cc1` (stereo not shown) [drawing 2060], the inhibition at 30 µM was 0% in test [1] and 1 to 25% in test [2].

For `O=C(Nc1nnc(-c2ccccn2)[nH]1)c1ccc2ccccc2n1` [drawing 1942], the inhibition at 30 µM in test [1] is 1 to 25%; in test [2], 0%.

Take `COc1ccccc1-c1csc2c(O)nc(-c3ccccn3)nc12` [drawing 2262]: the inhibition at 30 µM is 76 to 100% in test [1] and 51 to 75% in test [2].

For `COCCCCNC(=O)c1csc2nc(-c3ccccn3)nc(N3CCS(=O)(=O)CC3)c12` [drawing 2219], the figures for the inhibition at 30 µM in test [1] and in test [2] were 26 to 50% and 0%, respectively.

`Nc1nc(-c2ccccn2)nc2scc(C(=O)O)c12` [drawing 2298]: the inhibition at 30 µM in test [1] and in test [2] was 1 to 25% throughout.

Consider `Oc1nc(-c2ccccn2)nc2c(-c3cncnc3)csc12` [drawing 2326], for which the inhibition at 30 µM is 26 to 50% in test [1] and 0% in test [2].

Regarding `Oc1nc(-c2ccccn2)nc2c(-c3ccccc3F)csc12` [drawing 2260], the inhibition at 30 µM in test [1] lay in the range of 76 to 100%; in test [2], 51 to 75%.

As to `Nc1nc(-c2ccccn2)nc2ccsc12` [drawing 2227], the inhibition at 30 µM in test [1] was 0%; in test [2], 1 to 25%.

In the case of `Cc1c(C(=O)Nc2nnc(-c3ccccn3)[nH]2)oc2c1C(=O)CCC2` [drawing 1946], the inhibition at 30 µM is 1 to 25% in test [1] and 0% in test [2].

With `O=C(COCc1ccncc1)Nc1nc(-c2ccccn2)nc2sccc12` [drawing 2221], the values for the inhibition at 30 µM in test [1] and in test [2] were 76 to 100% and 1 to 25%, respectively.

`O=C(c1csc2c(O)nc(-c3ccccn3)nc12)N1CCN(Cc2cccc(O)c2)CC1` [drawing 2169]: the results for the inhibition at 30 µM in test [1] and in test [2] were 26 to 50% and 1 to 25%, respectively.

With `O=S1(=O)CCN(Cc2cccc(-c3csc4c(O)nc(-c5ccccn5)nc34)c2)CC1` [drawing 2256], the results for the inhibition at 30 µM in test [1] and in test [2] were 76 to 100% and 1 to 25%, respectively.

For the compound `COc1nc(-c2ccccn2)nc2c(C3CCCC3)csc12` [drawing 2309], the inhibition at 30 µM in test [1] and in test [2] was 0% each time.

As to `Cc1c(Br)sc2c(O)nc(-c3ccccn3)nc12` [drawing 2312], the inhibition at 30 µM in test [1] lay in the range of 76 to 100%; in test [2] it was 51 to 75%.

Consider `Cc1sc2c(O)nc(-c3ccccn3)nc2c1Br` [drawing 2349], for which the inhibition at 30 µM in test [1] was 26 to 50%; in test [2] it was 0%.

As for `CC(Oc1ccc(C#N)cc1)C(=O)Nc1nnc(-c2ccccn2)[nH]1` (stereo not shown) [drawing 1977], the inhibition at 30 µM in test [1] and in test [2] was 1 to 25% throughout.

For the compound `O=C(Nc1nc(-c2ccccn2)cs1)c1ccc2[nH]cnc2c1` [drawing 2012], the inhibition at 30 µM in test [1] was in the range of 26 to 50%; in test [2] it was 1 to 25%.

`Cc1ccc(-c2ccc(Oc3ccc(C(F)(F)F)cn3)c(C)c2)cc1` [drawing 2056]: the values for the inhibition at 30 µM in test [1] and in test [2] were 0% and 1 to 25%, respectively.

On to `O=C(Nc1nnc(-c2ccccn2)[nH]1)c1ccc(NC(=O)c2ccccn2)cc1` [drawing 1980], for which the inhibition at 30 µM in test [1] is 0%; in test [2], 1 to 25%.

With `Cn1ccnc1-c1nc(O)c2scc(-c3cccc(Cl)c3)c2n1` [drawing 2444], the inhibition at 30 µM is 51 to 75% in test [1] and 0% in test [2].

In the case of `O=C(NCCc1cncs1)c1csc2nc(-c3ccccn3)nc(N3CCOCC3)c12` [drawing 2176], the inhibition at 30 µM in test [1] was 1 to 25%; in test [2], 0%.

As to `O=C(Nc1nnc(-c2ccccn2)[nH]1)c1ncoc1-c1cccs1` [drawing 1963], the inhibition at 30 µM was 26 to 50% in test [1] and 1 to 25% in test [2].

With `Cn1ccnc1-c1nc(O)c2sc(-c3ccccc3)c(-c3ccccc3)c2n1` [drawing 2415], the inhibition at 30 µM in test [1] is 1 to 25%; in test [2], 0%.

Take `O=C(Cc1c[nH]c2ccccc12)Nc1nnc(-c2ccccn2)[nH]1` [drawing 1931]: the inhibition at 30 µM in test [1] was 26 to 50%; in test [2], 1 to 25%.

For `COC(=O)c1cc2nc(-c3ccccn3)nc(O)c2s1` [drawing 2299], the values for the inhibition at 30 µM in test [1] and in test [2] were 76 to 100% and 51 to 75%, respectively.

Turning to `Cc1sc2c(O)nc(-c3ccccn3)nc2c1C(=O)N1CCN(Cc2cccc(O)c2)CC1` [drawing 2334], the inhibition at 30 µM in test [1] is 26 to 50%; in test [2] it was 0%.

Consider `O=C(CNc1nc(-c2ccccn2)nc2scc(-c3ccccc3)c12)NC1CC1` [drawing 2149], for which the inhibition at 30 µM in test [1] and in test [2] was 26 to 50% in each case.

For `CC(Oc1ccccc1Cl)C(=O)Nc1nnc(-c2ccccn2)[nH]1` (stereo not shown) [drawing 1937], the inhibition at 30 µM in test [1] was 26 to 50%; in test [2], 1 to 25%.

`Cn1ccnc1-c1nc(NCCOC2CC2)c2c(-c3ccccc3)c(-c3ccccc3)sc2n1` [drawing 2403]: the inhibition at 30 µM in test [1] and in test [2] was 76 to 100% throughout.

As to `CC(c1ccccc1)N1CCN(C(=O)c2csc3c(O)nc(-c4ccccn4)nc23)CC1` (stereo not shown) [drawing 2215], the inhibition at 30 µM was 51 to 75% in test [1] and 0% in test [2].

On to `Oc1nc(-c2ccccn2)nc2cc(-c3cccc(Br)c3)sc12` [drawing 2391], for which the inhibition at 30 µM in test [1] and in test [2] was 1 to 25% in each case.

As to `COc1ccc(-c2c(C)sc3c(O)nc(-c4nccn4C)nc23)cn1` [drawing 2428], the inhibition at 30 µM in test [1] and in test [2] was 1 to 25% each time.

Turning to `COC1CC(CNc2nc(-c3ccccn3)nc3scc(-c4ccccc4)c23)CCC1OCC(N)=O` (stereo not shown), the inhibition at 30 µM in test [1] and in test [2] was 76 to 100% each time.

As to `c1ccc(-c2csc3nc(-c4ccccn4)nc(N4CCN(CC5CCCO5)CC4)c23)cc1` (stereo not shown) [drawing 2140], the inhibition at 30 µM in test [1] lay in the range of 51 to 75%; in test [2], 26 to 50%.

Take `O=S(=O)(Oc1cc(C(F)(F)F)cc(C(F)(F)F)c1)N1CCc2ccccc2C1` [drawing 2062]: the inhibition at 30 µM was 51 to 75% in test [1] and 0% in test [2].

Regarding `COCCNc1nc(-c2ccccn2)nc2c1c(-c1ccccc1)nn2-c1ccccn1` [drawing 2365], the inhibition at 30 µM in test [1] fell in the range of 76 to 100%; in test [2], 51 to 75%.

Regarding `CC(Nc1nc(-c2ccccn2)nc2scc(-c3ccccc3)c12)c1nncn1C` (stereo not shown) [drawing 2138], the inhibition at 30 µM in test [1] and in test [2] was 1 to 25% each time.

For `CCc1ccccc1OCC(=O)Nc1nnc(-c2ccccn2)[nH]1` [drawing 1982], the inhibition at 30 µM in test [1] was 26 to 50%; in test [2], 0%.

With `Oc1nc(-c2ccccn2)nc2c(-c3ccc4c(c3)OCO4)csc12` [drawing 2271], the inhibition at 30 µM in test [1] and in test [2] was 76 to 100% each time.

For the compound `O=C(COCCOc1ccccc1)Nc1nnc(-c2ccccn2)[nH]1` [drawing 2005], the inhibition at 30 µM in test [1] was 0%; in test [2], 1 to 25%.

As to `COc1cnc(C2CCCN2)nc1O` (stereo not shown) [drawing 2308], the inhibition at 30 µM in test [1] and in test [2] was 1 to 25% each time.

For `Cc1cncc(-c2csc3c(O)nc(-c4ccccn4)nc23)c1` [drawing 2305], the inhibition at 30 µM in test [1] lay within 76 to 100%; in test [2], 1 to 25%.

Regarding `Cn1ccnc1-c1nc(O)c2scc(-c3ccc(C(C)(C)C)cc3)c2n1` [drawing 2446], the inhibition at 30 µM is 1 to 25% in test [1] and 0% in test [2].

As for `COc1cnc(CNC(=O)c2csc3c(O)nc(-c4ccccn4)nc23)[nH]c1=O` [drawing 2347], the results for the inhibition at 30 µM in test [1] and in test [2] were 1 to 25% and 0%, respectively.

In the case of `Cc1sc2c(O)nc(-c3ccccn3)nc2c1C(=O)N1CCN(c2ccccc2)CC1` [drawing 2332], the inhibition at 30 µM in test [1] is 26 to 50%; in test [2], 1 to 25%.

With `COC(=O)c1cncc(C(=O)Nc2nnc(-c3ccccn3)[nH]2)c1` [drawing 1981], the inhibition at 30 µM in test [1] and in test [2] was 1 to 25% each time.
